Values quoted from earlier work, collected in patent US10195206B2, “Two-component pharmaceutical composition for the treatment of pain” (BRIDGE THERAPEUTICS, INC., priority 2005, dated 2019).

Tests used:
[1] = in vivo
[2] = in vivo; remark: listed apart in the source

Structure (SMILES) | half-life [1] | solubility in water | oral and/or gastrointestinal bioavailability [2]
CO[C@]12CCC3(C[C@@H]1[C@](C)(O)C(C)(C)C)[C@H]1Cc4ccc(O)c5c4[C@@]3(CCN1CC1CC1)[C@H]2O5.Cl [Buprenorphine, 17-(cyclopropylmethyl)-α-(1,1-dimethylethyl)-4,5-epoxy-18,19-dihydro-3-hydroxy-6-methoxy-α-methyl-6,14-ethenomorphian-7-methanol] | approximately 36 hours | limited solubility | poor
CN1C(C(=O)Nc2ccccn2)=C(O)c2ccccc2S1(=O)=O [Piroxicam, 4-hydroxyl-2-methyl-N-2-pyridinal-2H-1,2-benzothiazine-3-carboximide 1,1-dioxide] | approximately 50 hours | sparingly soluble | –
